# Measurements: PMC6222791, “(−)-Asarinin from the Roots of Asarum sieboldii Induces Apoptotic Cell Death via Caspase Activation in Human Ovarian Cancer Cells” (Molecules : A Journal of Synthetic Chemistry and Natural …, 2018)
# Where two headings read alike, the source gives them in different places.
# Assays:
# A2780 cells [1] = assay: MTT cytotoxicity assay, A2780; assay type: cell-based; conditions: Homo sapiens, read-out: IC50 (cytotoxicity)
# SKOV3 cells [2] = assay: MTT cytotoxicity assay, SKOV3; assay type: cell-based; conditions: Homo sapiens, read-out: IC50 (cytotoxicity)
# in vitro = conditions: human
# Method: (§1) Human ovarian cancer cell lines (A2780 and SKOV3 cells) were obtained from the American Type Culture Collection (ATCC), and immortalized ovarian surface epithelial cell lines (IOSE80PC) were provided by Dr. N. Auersperg (University of British Columbia, Vancouver, British Columbia, Canada) and Dr. A. Godwin (Fox Chase Cancer Center, Philadelphia, PA, USA).
# (§2) A MTT assay was performed to evaluate the cell viability. The MTT was obtained from Molecular Probes Inc. (Eugene, OR, USA). Briefly, the cells (1.0 × 10^5/well) were seeded in a 96-well plate and incubated for 24 h. […] MTT solution was added into each well (final concentration; 0.5 mg/mL) and the plates were incubated for an additional 4 h. The medium was removed and 50 μL of dimethyl sulfoxide (DMSO) was added. The optical density was measured at 540 nm using a microplate spectrophotometer (SpectraMax; Molecular Devices, Sunnyvale, CA, USA). To investigate the involvement of caspases in asarinin (1)-induced cell death, a MTT assay was also performed using caspase inhibitors. The cells were pretreated with caspase inhibitors (50 μM) for 30 min, and treated with (−)-asarinin (1) (A2780, 40 μM; and SKOV3, 60 μM) for 48 h. Caspase-3 inhibitor z-DEVD-fmk, caspase-8 inhibitor z-IETD-fmk, and caspase-9 inhibitor z-LEHD-fmk were purchased from Calbiochem (Bad Soden, Germany).
# IOSE80PC cells = assay: in vitro
# Method: as §1, §2
# A2780 cells [3] = assay: Cell cycle analysis (PI staining, flow cytometry), A2780; assay type: cell-based, human; conditions: A2780, 48 h
# Method: (§3) The cells were treated with (−)-asarinin (1) and incubated for 48 h. At the time of collection, the cells were harvested and washed twice with ice-cold phosphate buffered saline (PBS). The cells were fixed and permeabilized with 70% ice-cold ethanol at −20 °C for 4 h. The cells were washed once with PBS and resuspended in a staining solution containing propidium iodide (50 µg/mL) and RNase A (5 mg/mL). The cell suspensions were incubated for 30 min at room temperature in a dark place. After 30 min the suspensions were analyzed by fluorescence-activated cell sorting (FACS) cater-plus flow cytometry (guava easy cyte^TM, Merk Millipore, Darmstadt, Germany) using 5000 cells per group.
# SKOV3 cells [4] = assay: Cell cycle analysis (PI staining, flow cytometry), SKOV3; assay type: cell-based, human; conditions: SKOV3, 48 h
# Method: as §3
# A2780 cells [5] = assay: PI/Annexin V-FITC double staining, A2780; assay type: cell-based, human; conditions: A2780, 48 h, increased by up to
# Method: (§4) Annexin V- FITC was obtained from BD Biosciences (San Jose, CA, USA). The cells were treated with (−)-asarinin (1) and incubated for 48 h. The cells were rinsed twice with ice-cold PBS and suspended with 100 μL of binding buffer (10 mM HEPES/NaOH, 140 mM Nacl, 2.5 mM CaCl2, PH 7.4). A total of 5 μL of FITC-conjugated annexin V and 5 μL of PI ([…]) were added into the cell suspension, and the mixture was incubated in a dark place at room temperature for 15 min. The cells were analyzed using FACS cater-plus flow cytometry (guava easy cyte^TM); at least 10,000 cells per each group were counted.
# SKOV3 cells [6] = assay: PI/Annexin V-FITC double staining, SKOV3; assay type: cell-based, human; conditions: SKOV3, 48 h, increased by up to
# Method: as §4
# caspase-3 [7] = assay: Western blot caspase activation, A2780; assay type: cell-based, human; conditions: A2780, 48 h, procaspase level by Western blot
# Method: (§5) The cells were treated with (−)-asarinin (1) and incubated for 48 h. The cells were rinsed twice with ice-cold PBS and lysed with protein lysis buffer (Intron Biotechnology, Seoul, Korea) containing protease inhibitors (0.5 mM PMSF and 5 μg/mL aprotinin). The lysates were mixed with 5X sodium dodecyl sulfate (SDS) sample buffer and boiled for 5 min for denaturation. Total protein was run on 10–12% SDS-PAGE gels and electrotransferred onto a polyvinylidene difluoride (PVDF) membrane. The membrane was immunoblotted using specific primary antibodies overnight at 4 °C following blocking with 5% non-fat dry milk for 30 min–1 h. After washing, the membrane was incubated with horseradish peroxidase-conjugated secondary antibody (1:1000–2000) at room temperature for 1−2 h. After washing, immunepositive bands were visualized using an ECL chemiluminescent system and analyzed by Image Quant LAS-4000 (Fujifilm Life science, Tokyo, Japan). Anti-caspase-3 and b-actin antibodies were obtained from Santa Cruz Biotechnology (Santa Cruz, CA, USA). Caspase-9 antibody was purchased from Cell Signaling (Beverly, MA, USA). Caspase-8 antibody was obtained from BD Biosciences (San Jose, CA, USA).
# caspase-8 [8] = assay: Western blot caspase activation, A2780; assay type: cell-based, human; conditions: A2780, 48 h, procaspase level by Western blot
# Method: as §5
# caspase-9 [9] = assay: Western blot caspase activation, A2780; assay type: cell-based, human; conditions: A2780, 48 h, procaspase level by Western blot
# Method: as §5
# caspase-3 [10] = assay: Western blot caspase activation, SKOV3; assay type: cell-based, human; conditions: SKOV3, 48 h, procaspase level by Western blot
# Method: as §5
# caspase-8 [11] = assay: Western blot caspase activation, SKOV3; assay type: cell-based, human; conditions: SKOV3, 48 h, procaspase level by Western blot
# Method: as §5
# caspase-9 [12] = assay: Western blot caspase activation, SKOV3; assay type: cell-based, human; conditions: SKOV3, 48 h, procaspase level by Western blot
# Method: as §5
# EBV-EA activation = system: EBV-EA activation; design: method as in PMID 9255419, doi:10.1016/S1572-5995(00)80047-2; conditions: Raji cells; cited from earlier work
# [13] = system: human leukemia HL-60 cells; design: method as in PMID 11507740; conditions: cited from earlier work
# A2780 cells [14] = assay: MTT assay with caspase inhibitors on (−)-asarinin (1)-induced cell death, A2780; assay type: cell-based, human; conditions: A2780, inhibitor 50 μM pretreated 30 min, then (−)-asarinin (1) 40 μM 48 h
# SKOV3 cells [15] = assay: MTT assay with caspase inhibitors on (−)-asarinin (1)-induced cell death, SKOV3; assay type: cell-based, human; conditions: SKOV3, inhibitor 50 μM pretreated 30 min, then (−)-asarinin (1) 60 μM 48 h
# [16] = IOSE80PC immortalized ovarian surface epithelial cells
Compound,"IC50 (A2780 cells [1]; A2780, 48 h) [µM]","IC50 (SKOV3 cells [2]; SK-OV-3, 48 h) [µM]",IC50 at 48 h (in vitro) [µM],"IC50 (A2780 cells [1]; A2780, MTT, 48 h) [µM]","IC50 (SKOV3 cells [2]; SK-OV-3, SKOV3, MTT, 48 h) [µM]",IC50 at 48 h (in vitro; [16]) [µM],effect on (−)-asarinin (1)-induced cell death (A2780 cells [14]),effect on (−)-asarinin (1)-induced cell death (SKOV3 cells [15]),also measured
"c1cc2c(cc1[C@H]1OC[C@H]3[C@@H]1CO[C@H]3c1ccc3c(c1)OCO3)OCO2 [Compound 1, (−)-asarinin]",38.5 ± 2.78,60.9 ± 5.01,> 200,–,–,–,–,–,cytotoxicity (in words) (IOSE80PC cells): did not show any cytotoxicity; cell cycle arrest (A2780 cells [3]): failed to induce cell cycle arrest; cell cycle arrest (SKOV3 cells [4]): failed to induce cell cycle arrest; percentage of Annexin V-FITC positive/PI negative cells (A2780 cells [5]): up to 43%; percentage of Annexin V-FITC positive/PI negative cells (SKOV3 cells [6]): ≤ 48%; activation of caspase-3 (caspase-3 [7]): markedly stimulated the activation; activation of caspase-8 (caspase-8 [8]): markedly stimulated the activation; activation of caspase-9 (caspase-9 [9]): markedly stimulated the activation; activation of caspase-3 (caspase-3 [10]): markedly stimulated the activation; activation of caspase-8 (caspase-8 [11]): markedly stimulated the activation; activation of caspase-9 (caspase-9 [12]): markedly stimulated the activation; effect on EBV-EA activation (EBV-EA activation): significant inhibitory effect; DNA synthesis [13]: inhibited DNA synthesis
"COc1cc([C@@H]2OC[C@@H]3[C@H]2CO[C@H]3c2ccc3c(c2)OCO3)ccc1O [Compound 2, (−)-pluviatilol]",–,–,–,102 ± 13.6,174 ± 9.42,179 ± 3.3,–,–,–
"CCC(=O)c1cc2c(cc1O)OCO2 [Compound 3, kakuol]",> 200,> 200,> 200,–,–,–,–,–,–
"CCC(=O)c1cc2c(cc1OC)OCO2 [Compound 4, methylkakuol]",> 200,> 200,> 200,–,–,–,–,–,–
"C/C=C\CC/C=C/C=C/C(=O)NCC(C)C [Compound 7, (2E,4E,8Z)-N-isobutyldeca-2,4,8-trienamide]",–,–,–,> 200,> 200,> 200,–,–,–
"C/C=C/C=C\CC/C=C/C=C/C(=O)NCC(C)C [Compound 8, (2E,4E,8Z,10E/Z)-N-isobutyldodeca-2,4,8,10-tetraenamide]",–,–,–,101 ± 10.3,> 200,> 200,–,–,–
z-DEVD-fmk,–,–,–,–,–,–,considerably attenuated,considerably attenuated,–
z-IETD-fmk,–,–,–,–,–,–,considerably attenuated,considerably attenuated,–
z-LEHD-fmk,–,–,–,–,–,–,considerably attenuated,considerably attenuated,–
